In patent publication US20150105252A1, “SUBSTITUTED PYRAZOLES AS HERBICIDES” (E I DU PONT DE NEMOURS AND COMPANY, priority 2013, published 2015):

Tests used:
bluegrass = assay: Test D preemergence; format: in vivo, Poa annua; details: scale 0 to 100
Text: (§1) Seeds of plant species selected from bluegrass (annual bluegrass, Poa annua), blackgrass (Alopecurus myosuroides), canarygrass (littleseed canarygrass, Phalaris minor), chickweed (common chickweed, Stellaria media), galium (catchweed bedstraw, Galium aparine), bromegrass, downy (downy bromegrass, Bromus tectorum), field poppy (Papaver rhoeas), field violet (Viola arvensis), foxtail, green (green foxtail, Setaria viridis), deadnettle (henbit deadnettle, Lamium amplexicaule), ryegrass, Italian (Italian ryegrass, Lolium multiflorum), kochia (Kochia scoparia), lambsquarters (Chenopodium album), oilseed rape (Brassica napus), pigweed (redroot pigweed, Amaranthus retroflexus), chamomile (scentless chamomile, Matricaria inodora), speedwell (bird's-eye speedwell, Veronica persica), barley, spring (spring barley, Hordeum vulgare), wheat, spring (spring wheat, Triticum aestivum), buckwheat, wild (wild buckwheat, Polygonum convolvulus), mustard, wild (wild mustard, Sinapis arvensis), oat, wild (wild oat, Avena fatua), radish, wild (wild radish, Raphanus raphanistrum), windgrass (Apera spica-venti), Russian thistle (Salsola kali), barley, winter (winter barley, Hordeum vulgare), and wheat, winter (winter wheat, Triticum aestivum) were planted into a silt loam soil and treated preemergence with test chemicals formulated in a non-phytotoxic solvent mixture which included a surfactant.
(§2) At the same time, these species were planted in pots containing Redi-Earth® planting medium (Scotts Company, 14111 Scottslawn Road, Marysville, Ohio 43041) comprising spaghnum peat moss, vermiculite, wetting agent and starter nutrients and treated with postemergence applications of the test chemicals formulated in the same manner. Plants ranged in height from 2 to 18 cm (1- to 4-leaf stage). Treated plants and controls were maintained in a controlled growth environment for 14 to 21 days after which time all species were compared to controls and visually evaluated. Plant response ratings, summarized in Table D, are based on a scale of 0 to 100 where 0 is no effect and 100 is complete control. A dash (-) response means no test result.

pigweed [1] = assay: Test D preemergence; format: in vivo, Amaranthus retroflexus; details: scale 0 to 100
Text: as §1, §2

lambsquarters = assay: Test D postemergence; format: in vivo, Chenopodium album; details: scale 0 to 100
Text: as §1, §2

foxtail, green [2] = assay: Test D preemergence; format: in vivo, Setaria viridis; details: scale 0 to 100
Text: as §1, §2

foxtail, green [3] = assay: Test D postemergence; format: in vivo, Setaria viridis; details: scale 0 to 100
Text: as §1, §2

field violet = assay: Test D postemergence; format: in vivo, Viola arvensis; details: scale 0 to 100
Text: as §1, §2

kochia = assay: Test D postemergence; format: in vivo, Kochia scoparia; details: scale 0 to 100
Text: as §1, §2

speedwell = assay: Test D postemergence; format: in vivo, Veronica persica; details: scale 0 to 100
Text: as §1, §2

canarygrass = assay: Test D preemergence; format: in vivo, Phalaris minor; details: scale 0 to 100
Text: as §1, §2

pigweed [4] = assay: Test D postemergence; format: in vivo, Amaranthus retroflexus; details: scale 0 to 100
Text: as §1, §2

crabgrass, Brazil = assay: Test F preemergence; format: in vivo, Digitaria horizontalis
Text: (§3) Seeds of plant species selected from corn (Zea mays), soybean (Glycine max), velvetleaf (Abutilon theophrasti), lambsquarters (Chenopodium album), wild poinsettia (Euphorbia heterophylla), pigweed, palmer (palmer pigweed, Amaranthus palmeri), common waterhemp (Amaranthus rudis), surinam grass (Brachiaria decumbens), large crabgrass (Digitaria sanguinalis), crabgrass, Brazil (Brazilian crabgrass, Digitaria horizontalis), fall panicum (Panicum dichotomiflorum), giant foxtail (Setaria faberii), green foxtail (Setaria viridis), goosegrass (Eleusine indica), johnsongrass (Sorghum halepense), common ragweed (Ambrosia elation), barnyardgrass (Echinochloa crus-galli), southern sandbur (Cenchrus echinatus), arrowleaf sida (Sida rhombifolia), Italian ryegrass (Lolium multiflorum), dayflower, VA (Virginia (VA) dayflower, Commelina virginica), field bindweed (Convolvulus arvensis), cocklebur (common cocklebur, Xanthium strumarium), morningglory (Ipomoea coccinea), nightshade (eastern black nightshade, Solanum ptycanthum), kochia (Kochia scoparia), yellow nutsedge (Cyperus esculentus), and hairy beggarticks (Bidens pilosa), were planted into a silt loam soil and treated preemergence with test chemicals formulated in a non-phytotoxic solvent mixture which included a surfactant.
(§4) At the same time, plants from these crop and weed species and also horseweed (Canada horseweed, Conyza canadensis), smartweed (ladysthumb smartweed, Polygonum persicaria), waterhemp_RES1, (ALS & Triazine resistant common waterhemp, Amaranthus rudis), and waterhemp_RES2, (ALS & HPPD resistant common waterhemp, Amaranthus rudis) were treated with postemergence applications of test chemicals formulated in the same manner. Plants ranged in height from 2 to 18 cm for postemergence treatments (1- to 4-leaf stage). Treated plants and controls were maintained in a greenhouse for 14 to 21 days, after which time all species were compared to controls and visually evaluated. Plant response ratings, summarized in Table F, are based on a scale of 0 to 100 where 0 is no effect and 100 is complete control. A dash (-) response means no test result.

Surinam grass = assay: Test F preemergence; format: in vivo, Brachiaria decumbens
Text: as §3, §4

common ragweed = assay: Test F preemergence; format: in vivo, Ambrosia elation
Text: as §3, §4

Italian ryegrass = assay: Test F preemergence; format: in vivo, Lolium multiflorum
Text: as §3, §4

[5] = Preemergence, 31 g ai/ha, scale 0 to 100
[6] = Preemergence, 62 g ai/ha, scale 0 to 100
[7] = Preemergence, 125 g ai/ha, scale 0 to 100
[8] = preemergence, 8 g ai/ha, scale 0 to 100, 100 is complete control
[9] = preemergence, 16 g ai/ha, scale 0 to 100, 100 is complete control

CCc1cc(C(=O)NC(C)C)nn1Cc1ccnc(C(F)(F)F)c1 [Compound 103]
Plant response rating, Bluegrass (bluegrass; 31 g ai/ha): 10 | Plant response rating, Bluegrass (bluegrass; 62 g ai/ha): 35 | Plant response rating, Bluegrass (bluegrass; 125 g ai/ha): 65 | Plant response rating, Bluegrass (bluegrass; 250 g ai/ha): 85 | Plant response rating, Pigweed (pigweed [1]; 31 g ai/ha): 100 | Plant response rating, Pigweed (pigweed [1]; 62 g ai/ha): 100 | Plant response rating, Pigweed (pigweed [1]; 125 g ai/ha): 100 | Plant response rating, Pigweed (pigweed [1]; 250 g ai/ha): 100 | Lambsquarters plant response rating (lambsquarters; Postemergence, 31 g ai/ha): 35 | Lambsquarters plant response rating (lambsquarters; Postemergence, 125 g ai/ha): 40 | Lambsquarters plant response rating (lambsquarters; Postemergence, 250 g ai/ha): 60 | Lambsquarters plant response rating (lambsquarters; postemergence, 62 g ai/ha): 30 | Plant response rating, Foxtail, Green (foxtail, green [2]; 31 g ai/ha): 20 | Plant response rating, Foxtail, Green (foxtail, green [2]; 62 g ai/ha): 100 | Plant response rating, Foxtail, Green (foxtail, green [2]; 125 g ai/ha): 100 | Plant response rating, Foxtail, Green (foxtail, green [2]; 250 g ai/ha): 100 | Foxtail, Green plant response rating (foxtail, green [3]; Postemergence, 31 g ai/ha): 30 | Foxtail, Green plant response rating (foxtail, green [3]; Postemergence, 125 g ai/ha): 35 | Foxtail, Green plant response rating (foxtail, green [3]; Postemergence, 250 g ai/ha): 65 | Foxtail, Green plant response rating (foxtail, green [3]; postemergence, 62 g ai/ha): 20 | Field Violet plant response rating (field violet; Postemergence, 31 g ai/ha): 35 | Field Violet plant response rating (field violet; Postemergence, 125 g ai/ha): 60 | Field Violet plant response rating (field violet; Postemergence, 250 g ai/ha): 60 | Field Violet plant response rating (field violet; postemergence, 62 g ai/ha): 55 | Kochia plant response rating (kochia; Postemergence, 31 g ai/ha): 60 | Kochia plant response rating (kochia; Postemergence, 125 g ai/ha): 75 | Kochia plant response rating (kochia; Postemergence, 250 g ai/ha): 75 | Kochia plant response rating (kochia; postemergence, 62 g ai/ha): 65 | Speedwell plant response rating (speedwell; Postemergence, 31 g ai/ha): 35 | Speedwell plant response rating (speedwell; Postemergence, 125 g ai/ha): 55 | Speedwell plant response rating (speedwell; Postemergence, 250 g ai/ha): 70 | Speedwell plant response rating (speedwell; postemergence, 62 g ai/ha): 45 | Plant response rating, Canarygrass (canarygrass; 31 g ai/ha): 5 | Plant response rating, Canarygrass (canarygrass; 62 g ai/ha): 55 | Plant response rating, Canarygrass (canarygrass; 125 g ai/ha): 80 | Plant response rating, Canarygrass (canarygrass; 250 g ai/ha): 100 | Pigweed plant response rating (pigweed [4]; Postemergence, 31 g ai/ha): 70 | Pigweed plant response rating (pigweed [4]; Postemergence, 125 g ai/ha): 65 | Pigweed plant response rating (pigweed [4]; Postemergence, 250 g ai/ha): 70 | Pigweed plant response rating (pigweed [4]; postemergence, 62 g ai/ha): 60

CCOc1cc(C(=O)NCC(F)(F)F)nn1Cc1ccnc(C(F)(F)F)c1 [Compound 104]
Plant response rating, Crabgrass, Brazil (crabgrass, Brazil; [5]): 95 | Plant response rating, Crabgrass, Brazil (crabgrass, Brazil; [6]): 100 | Plant response rating, Crabgrass, Brazil (crabgrass, Brazil; [7]): 100 | Plant response rating, Crabgrass, Brazil (crabgrass, Brazil; [8]): 5 | Plant response rating, Crabgrass, Brazil (crabgrass, Brazil; [9]): 10 | Plant response rating, Surinam Grass (Surinam grass; [5]): 35 | Plant response rating, Surinam Grass (Surinam grass; [6]): 75 | Plant response rating, Surinam Grass (Surinam grass; [7]): 80 | Plant response rating, Surinam Grass (Surinam grass; [8]): 0 | Plant response rating, Surinam Grass (Surinam grass; [9]): 10 | Plant response rating, Common Ragweed (common ragweed; [5]): 95 | Plant response rating, Common Ragweed (common ragweed; [6]): 100 | Plant response rating, Common Ragweed (common ragweed; [7]): 100 | Plant response rating, Common Ragweed (common ragweed; [8]): 0 | Plant response rating, Common Ragweed (common ragweed; [9]): 0 | Plant response rating, Italian Ryegrass (Italian ryegrass; [5]): 40 | Plant response rating, Italian Ryegrass (Italian ryegrass; [6]): 60 | Plant response rating, Italian Ryegrass (Italian ryegrass; [7]): 75 | Plant response rating, Italian Ryegrass (Italian ryegrass; [8]): 0 | Plant response rating, Italian Ryegrass (Italian ryegrass; [9]): 0

CCNC(=O)c1cc(CCCl)n(Cc2ccnc(C(F)(F)F)c2)n1 [Compound 179]
Plant response rating, Crabgrass, Brazil (crabgrass, Brazil; [5]): 75 | Plant response rating, Crabgrass, Brazil (crabgrass, Brazil; [6]): 100 | Plant response rating, Crabgrass, Brazil (crabgrass, Brazil; [7]): 100 | Plant response rating, Crabgrass, Brazil (crabgrass, Brazil; [8]): 0 | Plant response rating, Surinam Grass (Surinam grass; [5]): 20 | Plant response rating, Surinam Grass (Surinam grass; [6]): 20 | Plant response rating, Surinam Grass (Surinam grass; [7]): 60 | Plant response rating, Surinam Grass (Surinam grass; [8]): 0 | Plant response rating, Common Ragweed (common ragweed; [5]): 40 | Plant response rating, Common Ragweed (common ragweed; [6]): 65 | Plant response rating, Common Ragweed (common ragweed; [7]): 80 | Plant response rating, Common Ragweed (common ragweed; [8]): 0 | Plant response rating, Italian Ryegrass (Italian ryegrass; [5]): 10 | Plant response rating, Italian Ryegrass (Italian ryegrass; [6]): 40 | Plant response rating, Italian Ryegrass (Italian ryegrass; [7]): 65 | Plant response rating, Italian Ryegrass (Italian ryegrass; [8]): 0
